These are literature values, as cited in patent US10308937B2, “Combination long acting compositions and methods for Hepatitis C” (GlaxoSmithKline Intellectual Property (No. 2) Limited, priority 2014, dated 2019).

The conditions of the data set: patients treated at currently recommended doses.

As for `NC(=O)c1ncn([C@@H]2O[C@H](CO)[C@@H](O)[C@H]2O)n1` [Ribavirin], the “patients with significant hemolysis” value was 10-20 % of patients.
